PubChem BioAssay AID434987 (Southern Research Specialized Biocontainment Screening …, 2010)
Active and inactive are the calls of the source. No rule for the calls is given here.

Test system: M. tuberculosis H37Rv growth inhibition with meropenem
Assay: dose response, H37Rv, with and without meropenem (AID 434987);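 also: growth over 7 days at 37 °C before Alamar Blue read on day 9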
[1] = M. tuberculosis H37Rv growth inhibition, measured here: IC50 without meropenem
[2] = M. tuberculosis H37Rv growth inhibition, measured here: IC90 without meropenem
[3] = measured here: IC90 with meropenem

SMILES	IC50	IC50 [1] [µM]	IC90 [2] [µM]	IC90 [3] [µM]
CCC(C(=O)NC1C(=O)N2C(C(=O)O)=C(CSc3nnc(C)s3)CSC12)c1ccccc1 (stereo unspecified)	0.587 µM	> 100	> 100	1.57
CCO[C@H]1OC(C(=O)NCc2nc3ccccc3[nH]2)=C[C@@H](c2cn(C(C)=O)c3ccccc23)[C@@H]1CCCO	90.7 µM (inactive)	80	> 100	> 100
CCc1ccc(NC(=S)Nc2ccc(S(=O)(=O)Nc3ncccn3)cc2)cc1	61.4 µM (inactive)	> 100	> 100	> 100
O=C(CCl)N(c1ccccc1)C1CCS(=O)(=O)C1 (stereo unspecified)	5.77 µM	18.2	55.6	13.9
CCCCN1C(=O)c2ccc(C(=O)Nc3cccc(C)c3C)cc2C1=O	> 100 µM (inactive)	> 100	> 100	> 100
Cc1ccccc1NC(=O)/C(C#N)=C\c1cc(C)n(-c2ccc(C(=O)O)cc2)c1C	21 µM (inactive)	46.8	76.7	51.1
CN(C)c1ccc(/C=N/NC(N)=S)cc1[N+](=O)[O-]	19.9 µM	> 100	> 100	> 50
CCn1c(=O)n(CC)c2cc(N3CCCC3)c(NC(=O)c3cc(Br)ccc3OC)cc21	> 100 µM (inactive)	> 100	> 100	> 100
Cc1cc2c(N=NC(=O)C3CC3c3ccccc3)c(O)[nH]c2cc1Br (stereo unspecified)	> 100 µM (inactive)	> 100	> 100	> 100
CCCc1c(C)nc2c(OC)cccc2c1SCC(=O)O	> 100 µM (inactive)	> 100	> 100	> 100
O=C(COc1ccc2ccccc2c1)Nc1nc2ccccc2[nH]1	5.83 µM	62	> 100	> 100
Cc1ccc(/C=N\NC(=O)c2csnn2)cc1	66.4 µM (inactive)	> 100	> 100	> 100
CCOC(=O)c1[nH]c2ccccc2c1NC(=O)Nc1ccc(OC)cc1	> 100 µM (inactive)	> 100	> 100	> 100
CCOC(=O)c1sc(Nc2nc3c(OC)cccc3s2)cc1C	98.6 µM (inactive)	89	> 100	> 100
O=c1oc(-c2ccccc2F)nc2scc(-c3ccccc3)c12	2.19 µM	> 100	> 100	3.05
O=C(Nc1ccccc1N1CCCC1)c1ccc2c(c1)OCO2	72.3 µM (inactive)	87.3	> 100	> 100
CCOC(=O)c1nn(-c2ccc(Cl)cc2)cc1O	> 100 µM (inactive)	> 100	> 100	> 100
O=C1COc2ccc(C(=O)/C=C/c3ccccc3)cc2N1	9.75 µM	25.6	> 50	12.2
COc1ccc(OC)c(-c2cc(C(=O)Nc3c(C)nn(Cc4ccccc4C)c3C)no2)c1	> 100 µM (inactive)	> 100	> 100	> 100
CCOC(=O)C1=C(N)OC(CCl)=C(C#N)C1c1ccsc1 (stereo unspecified)	> 100 µM (inactive)	> 100	> 100	> 100

SMILES	IC50	IC50 [1] [µM]	IC90 [2] [µM]	IC90 [3] [µM]
COc1cc(NC(=O)c2cccc(Cl)c2)c(OC)cc1NC(=O)CN1CCCCC1	7.42 µM	23.7	61.4	75.5
CSc1ccc(/C=C/C(=O)Nc2ccccc2)cc1	> 100 µM (inactive)	> 100	> 100	> 100
Cc1ccc(NC(=O)CSc2nnc([C@@H]3CCCN3C(=O)OC(C)(C)C)o2)c(C)c1	78.5 µM (inactive)	86.5	> 100	> 100
CSc1ncnc2c1ccn2CC(=O)Nc1ccc(C)c(C)c1	8.44 µM	> 100	> 100	> 25
O=C1S/C(=C\C=C\c2ccco2)C(=O)N1c1ccccc1	14.7 µM	43.5	> 100	77.6
COc1ccc2nc(NC(=O)NC3CCCCC3)sc2c1	> 100 µM (inactive)	> 100	> 100	> 100
CCCCCc1nnc(NC(=O)C2COc3ccccc3O2)s1 (stereo unspecified)	62.5 µM (inactive)	> 100	> 100	> 100
Cc1ccc(Cn2c(NC(=O)c3ccco3)nc3ccccc32)cc1	2.62 µM	> 100	> 100	> 100
O=C(/C=C/c1ccc([N+](=O)[O-])cc1)c1cccs1	5.35 µM	22.2	95.1	12.2
Cc1c(C(=O)Nc2cccnc2)oc2ccc(Br)cc12	> 100 µM (inactive)	> 100	> 100	> 100
CCC1(c2ccc(Cl)cc2)NC(=S)N(c2ccc(C)cc2)N1 (stereo unspecified)	> 100 µM (inactive)	> 100	> 100	> 100
O=C(COC(=O)c1ccc([N+](=O)[O-])s1)NCc1ccccc1	18.3 µM (inactive)	34.8	> 100	39.4
Cc1ccc(S(=O)(=O)NCCCCCC(=O)Nc2nccs2)cc1	> 100 µM (inactive)	> 100	> 100	> 100
CN(C)C(=O)c1ccc(-n2nc(C(F)(F)F)c3c2CCCC3)cc1	> 100 µM (inactive)	> 100	> 100	> 100
S=C(NN=C1C2CC3CC(C2)CC1C3)Nc1ccccc1	45.7 µM (inactive)	48.7	54.7	51.4
c1ccc(-c2cc3ccccc3[nH]2)cc1	> 100 µM (inactive)	> 100	> 100	> 100
COC(=O)c1cc(OC)c(OC)cc1NC(=S)N1CCN(C)CC1	> 100 µM (inactive)	> 100	> 100	> 100
Fc1ccc(C2Nc3cccc4cccc(c34)N2)cc1	> 100 µM (inactive)	> 100	> 100	> 100
COc1cc(OC)c(OC)cc1/C=C1\CCC(C2CCCC2)C1=O (stereo unspecified)	55.9 µM (inactive)	77.5	> 100	> 100
CC(C)NC(=O)C(=O)NNC(=O)C12CC3CC(CC(C3)C1)C2	15.6 µM	81.8	> 100	> 100

SMILES	IC50	IC50 [1] [µM]	IC90 [2] [µM]	IC90 [3] [µM]
CCOc1cc(CNC(C)C)c(Cl)cc1OCC(=O)NCCc1ccccc1	> 100 µM (inactive)	> 100	> 100	> 100
COC(=O)c1ccc(-c2cc(C(=O)O)c3cc4c(cc3n2)OCCO4)cc1	> 100 µM (inactive)	> 100	> 100	> 100
COc1ccc([C@H]2CC(=O)C=C(/C=C/c3ccccc3)C2)cc1OC	> 100 µM (inactive)	> 100	> 100	> 100
O=C(/C=C/c1cccnc1)c1ccc(O)cc1	19.8 µM (inactive)	34.2	46.9	50.4
CCOc1ccc(-c2nnc(-c3cccs3)o2)cc1OCC	> 100 µM (inactive)	> 100	> 100	> 100
CCOc1ccc(-c2nnc(-c3ccc(OC)cc3)o2)cc1	4.65 µM	35.6	> 100	> 100
CCOC(=O)c1sc(NC(=O)CN2CCCC2)c(C(=O)OCC)c1C	> 100 µM (inactive)	> 100	> 100	> 100
C/C(=N\OCC(=O)Nc1nc2ccccc2s1)c1ccccc1	13.1 µM	47.6	54.1	35.6
O=[N+]([O-])c1cc(Cl)cc(/C=N/NC(=S)Nc2cc(S(=O)(=O)N3CCOCC3)ccc2Cl)c1O	6.3 µM	18.2	30.5	29.3
O=C(Oc1oc(-c2ccco2)nc1C=Nc1ccc(Cl)cc1)c1ccco1	15 µM	> 100	> 100	> 100
O=C(COc1ccccc1)NNC(=O)c1cc2ccccc2oc1=O	15.3 µM	> 100	> 100	> 100
CC1CCc2c(sc(NC(=O)CCCn3cnc([N+](=O)[O-])n3)c2C(N)=O)C1 (stereo unspecified)	12.8 µM	32.7	> 100	90.4
Cc1cn([C@@H](CCCCNC(=O)OC(C)(C)C)C(=O)NCCCCCCCCCCC(=O)N2CCN(C(=O)OC(C)(C)C)CC2)nn1	97.7 µM (inactive)	> 100	> 100	> 100
Nc1ncnc2c1c(-c1ccc(Oc3ccccc3)cc1)cn2C1CCCC1	17.1 µM (inactive)	26.4	42.5	60.3
COC(=O)C1=C(C)NC(=O)/C1=C\c1cc(C)n(-c2cc(C)cc(C)c2)c1C	88.9 µM (inactive)	97.9	> 100	> 100
CC(C)c1ccc(S(=O)(=O)N2CCN(C(C)C(=O)NC3CCCC3)CC2)cc1 (stereo unspecified)	> 100 µM (inactive)	> 100	> 100	> 100
O=C(COc1ccccc1[N+](=O)[O-])N(Cc1cccc(Br)c1)C1CCS(=O)(=O)C1 (stereo unspecified)	> 100 µM (inactive)	> 100	> 100	> 100
c1ccc(-c2noc(-c3cccc4ccccc34)n2)cc1	20.2 µM	> 100	> 100	> 100
Nc1ccc(C(=O)O)c(O)c1	0.25 µM (inactive)	< 0.2	7.65	1.88
